Assay results: US8815807B2, “Peptides and peptide compositions having osteoinductive activity” (President and Fellows of Harvard College, priority 2008, dated 2014)
Positions of bridges follow the written chain, without caps; N, C: chain ends. No end group written: not given here.

What was measured:
Assay type in all cases: cell-based, human
hMSC cells = experiment: Alkaline phosphatase (AP) in cells contacted with peptide-displaying clones (tertiary screen); conditions: for induction of osteoblastic marker enzyme alkaline phosphatase: additional screening of clones
Protocol: A tertiary screen of the identified peptides was performed. The effect of each peptide on target cells was determined by measuring amounts of osteoblastic marker alkaline phosphatase (AP). Clonally purified individual isolates, or sibling pools of multiple isolates, were tested using the secondary and tertiary screens.
Individual preparations of each bacterial peptide-bearing clone to be tested were induced to express peptides, and were heat-devitalized in boiled water, to kill the peptide-displaying bacteria. Fifty microliters of heat-devitalized bacterial suspension was poured into each well of a 96-well plate containing agar, and the plate was centrifuged at 2000 rpm to embed bacteria in the surface of the agar.
Clones were further tested to quantify amount of stimulation of alkaline phosphatase (AP) activity in contacted cells. […] DNA from this clone that stimulated AP expression was isolated and was sequenced, and the DNA sequence was used to obtain amino acid sequence VFLRGNNSGGRS (SEQ ID NO: 2). This amino acid sequence appears not to have been previously reported.
Osteoinductive peptides with activity that stimulated osteoblasts include: VFLRGNNSGGRS (SEQ ID NO:2), GKIHRHRGQAVE (SEQ ID NO: 3), HIRQMPVRAGLS (SEQ ID NO: 4), RQGVGSNGXIQK (SEQ ID NO: 5), ESHCLLGISCVL (SEQ ID NO: 6), QQLQQNVILET (SEQ ID NO: 7), RSKLVEFRTTG (SEQ ID NO: 8), RNWRMSRRGGM (SEQ ID NO: 9), CVRGRGRMAGSV (SEQ ID NO: 10), ITRGELATVRRS (SEQ ID NO: 11), LRLGVGMGRTC (SEQ ID NO: 12), ERFAGNRNQLQ (SEQ ID NO: 13), GGLGSVGWYWA (SEQ ID NO: 14), GCGKERGRRALK (SEQ ID NO: 15), GQERLWAFRWVP (SEQ ID NO: 16), RGVLRVGTGRSE (SEQ ID NO: 17), ITRGELATVRRS (SEQ ID NO: 18), RPALRLGLIGPS (SEQ ID NO: 19), TRTSVDAPIRX (SEQ ID NO: 20), SKALRGVGSVAS (SEQ ID NO: 21), and RRGQDRGHEPK (SEQ ID NO: 22).

MG63 cells [1] = experiment: Cellular ATP in MG63 cells on streptavidin-coated wells treated with biotinylated peptide; conditions: MG63 1,000 cells/well, 120 hours after seeding, 50-3200 pmole/well, FIG. 4, versus biotin only
Protocol: (§1) Cell growth and osteogenic inducing potential of each of the preparations of the biotinylated linear and the cyclic peptides was determined. The osteogenic potential of each peptide was analyzed by quantifying cellular ATP and alkaline phosphatase (AP) activity of osteoblast cells.
(§2) Peptides were added to the wells in titrated amounts (50 pmole/well, 100 pmole/well, 200 pmole/well, 400 pmole/well, 800 pmole/well, 1600 pmole/well, or 3200 pmole/well) and were immobilized on streptavidin-coated plastic well plates (384 wells per plate). The biotin-binding capacity of the plates was 50 pmole/well. Each well was washed to remove unbound biotinylated peptides. […] MG63 cells (1,000 cells/well) were inoculated into each well.
(§3) ATP (RFU/well) was measured at each of 24 hours and 120 hours after cells were seeded, and alkaline phosphatase (AP, RFU standardized by cell number) activity was measured 120 hours after cells were seeded.

MG63 cells [2] = experiment: Alkaline phosphatase activity of MG63 cells on streptavidin-coated wells treated with biotinylated peptide; conditions: MG63 1,000 cells/well, 120 hours after seeding, 50-3200 pmole/well, FIG. 5, versus biotin only
Protocol: as §1, §2, §3

## CVRGRGRMAGSV (The protein was designed and synthesized) [SEQ ID NO: 10]
hMSC cells
  induction of osteoblastic marker enzyme alkaline phosphatase: induced osteoblastic marker enzyme alkaline phosphatase

## ERFAGNRNQLQ (The protein was designed and synthesized) [SEQ ID NO: 13]
hMSC cells
  induction of osteoblastic marker enzyme alkaline phosphatase: induced osteoblastic marker enzyme alkaline phosphatase

## ESHCLLGISCVL (The protein was designed and synthesized) [SEQ ID NO: 6, osteopontin-like peptide]
MG63 cells [1]
  cellular ATP amounts / cell growth, 120 hours: induced cell growth
hMSC cells
  induction of osteoblastic marker enzyme alkaline phosphatase: induced osteoblastic marker enzyme alkaline phosphatase
MG63 cells [2]
  alkaline phosphatase (AP) activity, 120 hours: production of osteogenic marker AP

## GCGKERGRRALK (The protein was designed and synthesized) [SEQ ID NO: 15]
hMSC cells
  induction of osteoblastic marker enzyme alkaline phosphatase: induced osteoblastic marker enzyme alkaline phosphatase

## GEN/cyclic: biotinylated cyclic ESHCLLGISCVL (SEQ ID NO: 6), three mini-PEG repeats, synthesized by GEN (disulfide 4-10 (inferred); also: biotin, three mini-PEG repeats, attachment end not given here)
MG63 cells [1]
  cellular ATP amounts / cell growth, 120 hours: stimulated ATP production and cellular growth
MG63 cells [2]
  alkaline phosphatase (AP) activity, 120 hours: induced greater alkaline phosphatase activity than the controls

## GEN/linear: biotinylated linear ESHCLLGISCVL (SEQ ID NO: 6), three mini-PEG repeats, synthesized by GEN (cysteine pairing not given here; also: biotin, three mini-PEG repeats, attachment end not given here)
MG63 cells [1]
  cellular ATP amounts / cell growth, 120 hours: stimulated ATP production and cellular growth
MG63 cells [1]; listed as linear peptides synthesized by GEN
  cellular ATP amounts / cell growth, 120 hours: greater ATP amounts than those in wells treated with any of the other peptides
MG63 cells [2]
  alkaline phosphatase (AP) activity, 120 hours: induced greater alkaline phosphatase activity than the controls

## GGLGSVGWYWA (The protein was designed and synthesized) [SEQ ID NO: 14]
hMSC cells
  induction of osteoblastic marker enzyme alkaline phosphatase: induced osteoblastic marker enzyme alkaline phosphatase

## GKIHRHRGQAVE (The protein was designed and synthesized) [SEQ ID NO: 3]
hMSC cells
  induction of osteoblastic marker enzyme alkaline phosphatase: induced osteoblastic marker enzyme alkaline phosphatase

## GQERLWAFRWVP (The protein was designed and synthesized) [SEQ ID NO: 16]
hMSC cells
  induction of osteoblastic marker enzyme alkaline phosphatase: induced osteoblastic marker enzyme alkaline phosphatase

## HIRQMPVRAGLS (The protein was designed and synthesized) [SEQ ID NO: 4]
hMSC cells
  induction of osteoblastic marker enzyme alkaline phosphatase: induced osteoblastic marker enzyme alkaline phosphatase

## ITRGELATVRRS (The protein was designed and synthesized) [SEQ ID NO: 11]
hMSC cells
  induction of osteoblastic marker enzyme alkaline phosphatase: induced osteoblastic marker enzyme alkaline phosphatase

## LRLGVGMGRTC (The protein was designed and synthesized) [SEQ ID NO: 12]
hMSC cells
  induction of osteoblastic marker enzyme alkaline phosphatase: induced osteoblastic marker enzyme alkaline phosphatase

## NEP/cyclic: biotinylated cyclic ESHCLLGISCVL (SEQ ID NO: 6), 15 atom-PEG, synthesized by NEP (disulfide 4-10 (inferred); also: biotin, 15 atom-PEG, attachment end not given here)
MG63 cells [1]
  cellular ATP amounts / cell growth, 120 hours: stimulated ATP production and cellular growth
MG63 cells [2]
  alkaline phosphatase (AP) activity, 120 hours: induced greater alkaline phosphatase activity than the controls

## NEP/linear: biotinylated linear ESHCLLGISCVL (SEQ ID NO: 6), 15 atom-PEG, synthesized by NEP (cysteine pairing not given here; also: biotin, 15 atom-PEG, attachment end not given here)
MG63 cells [1]
  cellular ATP amounts / cell growth, 120 hours: stimulated ATP production and cellular growth
MG63 cells [2]
  alkaline phosphatase (AP) activity, 120 hours: induced greater alkaline phosphatase activity than the controls

## QQLQQNVILET (The protein was designed and synthesized) [SEQ ID NO: 7]
hMSC cells
  induction of osteoblastic marker enzyme alkaline phosphatase: induced osteoblastic marker enzyme alkaline phosphatase

## RGVLRVGTGRSE (The protein was designed and synthesized) [SEQ ID NO: 17]
hMSC cells
  induction of osteoblastic marker enzyme alkaline phosphatase: induced osteoblastic marker enzyme alkaline phosphatase

## RNWRMSRRGGM (The protein was designed and synthesized) [SEQ ID NO: 9]
hMSC cells
  induction of osteoblastic marker enzyme alkaline phosphatase: induced osteoblastic marker enzyme alkaline phosphatase

## RPALRLGLIGPS (The protein was designed and synthesized) [SEQ ID NO: 19]
hMSC cells
  induction of osteoblastic marker enzyme alkaline phosphatase: induced osteoblastic marker enzyme alkaline phosphatase

## RQGVGSNGXIQK [SEQ ID NO: 5]
hMSC cells
  induction of osteoblastic marker enzyme alkaline phosphatase: induced osteoblastic marker enzyme alkaline phosphatase

## RRGQDRGHEPK (The protein was designed and synthesized) [SEQ ID NO: 22]
hMSC cells
  induction of osteoblastic marker enzyme alkaline phosphatase: induced osteoblastic marker enzyme alkaline phosphatase

## RSKLVEFRTTG (The protein was designed and synthesized) [SEQ ID NO: 8]
hMSC cells
  induction of osteoblastic marker enzyme alkaline phosphatase: induced osteoblastic marker enzyme alkaline phosphatase

## SKALRGVGSVAS (The protein was designed and synthesized) [SEQ ID NO: 21]
hMSC cells
  induction of osteoblastic marker enzyme alkaline phosphatase: induced osteoblastic marker enzyme alkaline phosphatase

## TRTSVDAPIRX [SEQ ID NO: 20]
hMSC cells
  induction of osteoblastic marker enzyme alkaline phosphatase: induced osteoblastic marker enzyme alkaline phosphatase

## VFLRGNNSGGRS (The protein was designed and synthesized) [SEQ ID NO: 2]
hMSC cells
  induction of osteoblastic marker enzyme alkaline phosphatase: induced osteoblastic marker enzyme alkaline phosphatase
hMSC cells; clone-contacted cells
  AP expression compared with control cells contacted with empty vector: an order of magnitude more AP expression
